According to paper PMC6337512 (Molecules, 2018):
Converted amounts (≈) assume the structure as drawn.

Key:
[1] = Permeability and diffusion in Franz diffusion cells through PES-U membrane
[2] = solutions in culture media RPMI
[3] = Solubility of APIs and THEDES in PBS, excess added, 24 h stirring, UV spectroscopy; assay type: physicochemical; details: aqueous buffer, thermodynamic from solid; PBS (pH 7.4), 37 °C
Protocol: The solubility studies were made with the pure APIs and THEDES. For performing these assays were used a PBS solution, and was added an excess of API and THEDES to this solution, place at 37 °C, under stirring for 24 h, for simulate physiological conditions. The determination of the API solubility was made by UV spectroscopy in 1 mL quartz cuvettes, using a Lambda 35 UV/VIS spectrometer (PerkinElmer, Villepinte, France) and the PerkinElmer UV WinLab software (PerkinElmer, Villepinte, France). […] The calibration curve was made using the respective APIs as standard for quantification.

Row | SMILES | Papp at 180 min [1] [×10⁻⁶ cm/s] | pH [2] | solubility at 24 h [3] [µg/mL]
1 | CC[C@@H](CO)NCCN[C@@H](CC)CO [Ethambutol, ethambutol] | 819 ± 30.6 | 6.21 | 4640 ± 70 (≈ 22.7 mM)
2 | N=C(N)NCCC[C@H](N)C(=O)O [L-Arginine, L-arginine] | – | 10.43 | –
